Experimental data: patent publication US9133182B2, “Selective androgen receptor modulators” (Radius Health, Inc., priority 2010, dated 2015)

Columns and labels:
[1] = biological target: androgen receptor (Rattus norvegicus (Rat), UniProt P15207); test: androgen receptor binding assay (fluorescence polarization, Invitrogen); details: AR-Fluormone complex, 4 h at room temperature
Protocol: The assay was performed as specified by the manufacturer (Invitrogen, Madison, Wis.). Briefly, 1 μl of 10 mM compound was added to 500 μl of AR screening buffer in a 1.5 ml eppendorf tube to make a 2×10^−5M stock. 10-fold serial dilutions of the test compounds were prepared ranging in concentration from 10^−5M to 10^−12M. Each dilution was added in triplicate to a black 384-microtiter plate. The test compounds will be diluted 2-fold in the final reaction. 2×AR-Fluormone™ complex was prepared with 2 nM Flourmone AL Green™ and 30 nM AR. 25 μl of 2×complex was aliquoted to each reaction well, such that the final reaction volume was 50 μl per well. Plate was sealed with a foil cover and incubated in the dark at room temperature for 4 h. Polarization values for each well were measured. The polarization values were plotted against the concentration of the test compound. […] As a control, a competition curve for R1881 (methyltrienolone) was performed for each assay.

[2] = system: immature, castrated rat (levator ani and bulba cavernous, LABC); test: In vivo rat Herschberger assay, LABC weight; set-up: key: no = no activity observed at highest dose tested.; yes = increased LABC weight relative to castrated vehicle control; details: once daily oral gavage for 4 days
Excerpt: In Vivo Rat Model of Androgen and Anabolic Activity-Rat Herschberger Assay
The following is a typical procedure of the in vivo evaluation of the selective androgens of this invention. In particular, this assay looks primarily at the ability of the selective androgens of this invention to increase muscle size in an immature, castrated rat. In addition, androgenic effects are looked at primarily by weighing the prostate and seminal vesicles. Selective compounds will show a greater increase in the levator ani relative to the prostate and seminal vesicles when compared to testosterone treated, castrated animals or to intact animals that have not been treated. Immature Sprague Dawley male rats were obtained Charles River Laboratories (Stoneridge, N.Y.). All animals were maintained in a temperature and humidity controlled room with a 12 hr light: 12 hr dark cycle, with ad lib access to food (TD 291615, Teklad, Madison, Wis.) and water. Rats were anesthetized and orchidectomized (GDX) or sham surgery (SHAM) was performed. After a 7-day recovery period, the animals were randomized according to weight and assigned to treatment groups (n=5), SHAM, OVX+vehicle, OVX+Cpd treated. Testosterone propionate (TP 1 mg/kg in 5% DMSO/95% corn oil) was administered by once daily subcutaneous injections, while the compounds of the invention are dosed in vehicle (0.5% carboxymethylcellulose) was administered by once daily oral gavage. The rats were then dosed once daily for 4 days. All animals were euthanized via carbon dioxide inhalation 24 hs after the last dose. The prostate, seminal vesicle and levator ani and bulba cavernous (LABC) tissues were removed, weighed and recorded. An increase in mean LABC indicates anabolic activity for that particular compound with regard to oral dosing typically at a maximum tested dose of between 1 mg/kg and 30 mg/kg—see Table 1.

[3] = maximum tested dose between 1 mg/kg and 30 mg/kg, Table 1

Chain of androgen receptor (P15207 651-902): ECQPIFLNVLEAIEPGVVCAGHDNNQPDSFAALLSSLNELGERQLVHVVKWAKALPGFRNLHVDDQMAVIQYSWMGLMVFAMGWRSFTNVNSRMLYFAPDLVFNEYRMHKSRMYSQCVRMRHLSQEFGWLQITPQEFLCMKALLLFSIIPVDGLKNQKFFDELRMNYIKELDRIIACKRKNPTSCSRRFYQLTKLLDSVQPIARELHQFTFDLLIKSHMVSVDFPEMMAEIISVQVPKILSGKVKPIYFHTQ

Structure (SMILES)	IC50 ([1]; Table 1) [µM]	IC50 ([1]; Table 2) [µM]	further results
C[C@@H]1OC(=O)N(c2ccc(C#N)c(Cl)c2)[C@H]1[C@@H](O)C(F)(F)F [Example 22, 2-Chloro-4-((4S,5S)-5-methyl-2-oxo-4-((R)-2,2,2-trifluoro-1-hydroxyethyl)oxazolidin-3-yl)benzonitrile]	0.21	–	Oral activity in Herscheberger assay on LABC weight [2, 3]: yes
Cc1c(N2C(=O)O[C@@H](C)[C@@H]2[C@H](O)C(F)(F)F)ccc(C#N)c1Cl [Example 17, 2-chloro-3-methyl-4-((4S,5S)-5-methyl-2-oxo-4-((S)-2,2,2-trifluoro-1-hydroxyethyl)oxazolidin-3-yl)benzonitrile]	0.013	–	Oral activity in Herscheberger assay on LABC weight [2, 3]: yes
Cc1c(N2C(=O)CC[C@@H]2[C@H](O)C(F)(F)F)ccc(C#N)c1Cl [Example 29, 2-chloro-4-((R)-2-((S)-2,2,2-trifluoro-1-hydroxyethyl)-5-oxopyrrolidin-1-yl)-3-methylbenzonitrile]	–	0.025	Oral activity in Herscheberger assay on LABC weight ([2]; Table 2): yes
Cc1c(N2C(=O)O[C@H](C)[C@@H]2[C@H](O)C(F)(F)F)ccc(C#N)c1C(F)(F)F [Example 34, 4-((4S,5R)-4-((S)-2,2,2-trifluoro-1-hydroxyethyl)-5-methyl-2-oxooxazolidin-3-yl)-2-(trifluoromethyl)-3-methylbenzonitrile]	–	> 1	–
C[C@@H]1OC(=O)N(c2ccc(C#N)c(C(F)(F)F)c2)[C@H]1[C@H](O)C(F)(F)F [Example 19, 4-((4S,5S)-5-methyl-2-oxo-4-((S)-2,2,2-trifluoro-1-hydroxyethyl)oxazolidin-3-yl)-2-(trifluoromethyl)benzonitrile]	–	–	Oral activity in Herscheberger assay on LABC weight [2, 3]: yes
Cc1c(N2C(=O)O[C@@H](C)[C@@H]2[C@H](O)C(F)(F)F)ccc(C#N)c1C(F)(F)F [Example 23, 3-methyl-4-((4S,5S)-5-methyl-2-oxo-4-((S)-2,2,2-trifluoro-1-hydroxyethyl)oxazolidin-3-yl)-2-(trifluoromethyl)benzonitrile]	0.033	–	–
N#Cc1ccc(N2C(=O)OC[C@@H]2[C@@H](O)C(F)(F)F)cc1C(F)(F)F [Example 8, 4-((R)-2-oxo-4-((R)-2,2,2-trifluoro-1-hydroxyethyl)oxazolidin-3-yl)-2-(trifluoromethyl)benzonitrile]	> 1	–	–
C[C@H]1OC(=O)N(c2ccc(C#N)c(C(F)(F)F)c2)[C@H]1[C@@H](O)C(F)(F)F [Example 37, 4-((4S,5R)-4-((R)-2,2,2-trifluoro-1-hydroxyethyl)-5-methyl-2-oxooxazolidin-3-yl)-2-(trifluoromethyl)benzonitrile]	–	> 1	–
Cc1c(N2C(=O)CC[C@@H]2[C@@H](O)C(F)(F)F)ccc(C#N)c1C(F)(F)F [Example 4, 3-methyl-4-((R)-2-oxo-5-((R)-2,2,2-trifluoro-1-hydroxyethyl)pyrrolidin-1-yl)-2-(trifluoromethyl)benzonitrile]	0.12	–	–
C[C@H]1OC(=O)N(c2ccc(C#N)c(Cl)c2)[C@H]1[C@@H](O)C(F)(F)F [Example 39, 2-chloro-4-((4S,5R)-4-((R)-2,2,2-trifluoro-1-hydroxyethyl)-5-methyl-2-oxooxazolidin-3-yl)benzonitrile]	–	0.55	–
O=C1CC[C@H]([C@@H](O)C(F)(F)F)N1c1ccc2nnsc2c1 [Example 6, (R)-1-(Benzo[d][1,2,3]thiadiazol-6-yl)-5-((R)-2,2,2-trifluoro-1-hydroxyethyl)pyrrolidin-2-one]	–	–	Binding IC50 (nM) ([1]; Table 1): No binding
N#Cc1ccc(N2C(=O)CC[C@@H]2[C@@H](O)C(F)(F)F)cc1Cl [Example 33, 2-chloro-4-((R)-2-((R)-2,2,2-trifluoro-1-hydroxyethyl)-5-oxopyrrolidin-1-yl)benzonitrile]	–	0.065	–
Cc1c(N2C(=O)O[C@H](C)[C@@H]2[C@@H](O)C(F)(F)F)ccc(C#N)c1Cl [Example 16, 2-chloro-3-methyl-4-((4S,5R)-5-methyl-2-oxo-4-((R)-2,2,2-trifluoro-1-hydroxyethyl)oxazolidin-3-yl)benzonitrile]	> 1	–	–
C[C@H]1OC(=O)N(c2ccc(C#N)c(C(F)(F)F)c2)[C@H]1[C@H](O)C(F)(F)F [Example 36, 4-((4S,5R)-4-((S)-2,2,2-trifluoro-1-hydroxyethyl)-5-methyl-2-oxooxazolidin-3-yl)-2-(trifluoromethyl)benzonitrile]	–	> 1	–
O=C1CC[C@H]([C@H](O)C(F)(F)F)N1c1ccc2nnsc2c1 [Example 5, (R)-1-(Benzo[d][1,2,3]thiadiazol-6-yl)-5-((S)-2,2,2-trifluoro-1-hydroxyethyl)pyrrolidin-2-one]	0.53	–	–
C[C@@H]1OC(=O)N(c2ccc(C#N)c(C(F)(F)F)c2)[C@H]1[C@@H](O)C(F)(F)F [Example 20, 4-((4S,5S)-5-methyl-2-oxo-4-((R)-2,2,2-trifluoro-1-hydroxyethyl)oxazolidin-3-yl)-2-(trifluoromethyl)benzonitrile]	–	–	Oral activity in Herscheberger assay on LABC weight [2, 3]: yes
Cc1c(N2C(=O)O[C@@H](C)[C@@H]2[C@@H](O)C(F)(F)F)ccc(C#N)c1Cl [Example 18, 2-chloro-3-methyl-4-((4S,5S)-5-methyl-2-oxo-4-((R)-2,2,2-trifluoro-1-hydroxyethyl)oxazolidin-3-yl)benzonitrile]	0.7	–	–
Cc1c(N2C(=O)O[C@@H](C)[C@@H]2[C@@H](O)C(F)(F)F)ccc(C#N)c1C(F)(F)F [Example 24, 3-methyl-4-((4S,5S)-5-methyl-2-oxo-4-((R)-2,2,2-trifluoro-1-hydroxyethyl)oxazolidin-3-yl)-2-(trifluoromethyl)benzonitrile]	> 1	–	–
Cc1c(N2C(=O)O[C@H](C)[C@@H]2[C@H](O)C(F)(F)F)ccc(C#N)c1Cl [Example 15, 2-chloro-3-methyl-4-((4S,5R)-5-methyl-2-oxo-4-((S)-2,2,2-trifluoro-1-hydroxyethyl)oxazolidin-3-yl)benzonitrile]	0.2	–	–
C[C@H]1OC(=O)N(c2ccc(C#N)c(Cl)c2)[C@H]1[C@H](O)C(F)(F)F [Example 38, 2-chloro-4-((4S,5R)-4-((S)-2,2,2-trifluoro-1-hydroxyethyl)-5-methyl-2-oxooxazolidin-3-yl)benzonitrile]	–	0.15	–
O=C1CC[C@H]([C@@H](O)C(F)(F)F)N1c1ccc(Cl)c(Cl)c1 [Example 28, (R)-1-(3,4-dichlorophenyl)-5-((R)-2,2,2-trifluoro-1-hydroxyethyl)pyrrolidin-2-one]	–	> 1	–
N#Cc1ccc(N2C(=O)CC[C@@H]2[C@@H](O)C(F)(F)F)cc1C(F)(F)F [Example 2, 4-((R)-2-oxo-5-((R)-2,2,2-trifluoro-1-hydroxyethyl)pyrrolidin-1-yl)-2-(trifluoromethyl)benzonitrile]	0.1	–	–
Cc1c(N2C(=O)O[C@H](C)[C@@H]2[C@@H](O)C(F)(F)F)ccc(C#N)c1C(F)(F)F [Example 35, 4-((4S,5R)-4-((R)-2,2,2-trifluoro-1-hydroxyethyl)-5-methyl-2-oxooxazolidin-3-yl)-2-(trifluoromethyl)-3-methylbenzonitrile]	–	> 10	–
N#Cc1ccc(N2C(=O)OC[C@H]2[C@@H](O)C(F)(F)F)cc1Cl [Example 10, 2-chloro-4-((S)-2-oxo-4-((R)-2,2,2-trifluoro-1-hydroxyethyl)oxazolidin-3-yl)benzonitrile]	> 1	–	–
Cc1c(N2C(=O)OC[C@@H]2[C@@H](O)C(F)(F)F)ccc(C#N)c1Cl [Example 12, 2-chloro-3-methyl-4-((R)-2-oxo-4-((R)-2,2,2-trifluoro-1-hydroxyethyl)oxazolidin-3-yl)benzonitrile]	0.933	–	–
